According to patent US20260109690A1, “HDAC6 INHIBITORS AND METHOD OF THEIR USE” (Baerenkraft Therapeutics, LLC., priority 2024, published 2026):

Test system: B6SJL.SOD1-G93A transgenic mouse model of amyotrophic lateral sclerosis
Test: Pre-clinical ALS mouse model efficacy: motor behavior
Assay type: in vivo, mice
Settings: both doses (G3 and G4), week 10 until week 16
Method: Effect of test compound I-8 in Cyagen, male B6SJL.SOD1-G93A 9-week-old transgenic mouse model of amyotrophic lateral sclerosis
Compound I-8 effect was evaluated in Cyagen, Male B6SJL.SOD1-G93A 9-week-old mice, an animal model of amyotrophic lateral sclerosis.

## CC1CN(Cc2ccc(Nc3nccc(-c4ccc(C(=O)NO)cc4)n3)cc2F)CCO1 (racemic) [Compound I-8, 4-(2-((3-fluoro-4-((2-methylmorpholino)methyl)phenyl)amino)pyrimidin-4-yl)-N-hydroxybenzamide]
  motor behavior compared to disease control group: Improvement was observed in motor behavior
